The values that follow are results of earlier work, collected in patent US20210401766A1, “Method of Using Cannabinoids Encapsulated in Phospholipid Carriers for Transmucosal and Transdermal Administration” (NuVessl, Inc., priority 2018, published 2021).

For `C=C(C)[C@@H]1CCC(C)=C[C@H]1c1c(O)cc(CCCCC)cc1O` [CBD, Cannabidiol], the Duration of effects (oral administration) was 5 to 8 h. In addition, the Bioavailability result (oromucosal) is “approximately 35%”. Besides, where the note is “smoking and vaporizing”, the “Bioavailability (average)” value is “around 40%”, the “Bioavailability (range)” value is recorded as 2%-56% and the “Length of time CBD remains in the body” value was “around 3 hours”.
